Results as given in US20180117000A1, “ENERGY METABOLIC ACTIVATING AGENT FOR MUSCLE CELLS” (ORYZA OIL & FAT CHEMICAL CO., LTD., priority 2015, published 2018).
Entries after “also recorded” stand apart in the source; their conditions may differ.

Tests used:
[1] = system: sugar transporter (GLUT4); test: Evaluation of sugar-transporter (GLUT4) gene-expression promotion: GLUT4 mRNA by RT-PCR in C2C12; assay type: cell-based, Mouse; conditions: Compounds at 1 μM or 10 μM, C2C12 myoblast cells, cultured one week, GAPDH endogenous control, vs DMSO control, FIG. 2
Description: Mouse-muscle myoblast-cell lines C2C12 (cultured in DMEM FCS10%) were seeded in 24 well plates for determining the mRNA expression (1×10^4 cells/ml) and then were cultured for 24 hours. […] Then, the black-ginger extract and the separated fractions were cultured for one week. For control, the DMSO was added to the culture media in concentration of 0.1% (v/v). After being cultured for one week, the cells were collected, and the RNA was extracted. Regarding the collected RNA, by using RT-PCR (reverse-transcription polymerase chain-reaction), the expressed mRNA amount of the sugar transporter (GLUT4) was identified. At that time, as an endogenous-control, GAPDH (Glyceraldehyde 3-phosphate dehydrogenase) was used.

PGC-1α = test: Evaluation of the PGC-1α-expression promoting effect: PGC-1α mRNA by RT-PCR in C2C12; assay type: cell-based, Mouse; conditions: Compounds at 1 μM or 10 μM, C2C12 myoblast cells, cultured one week, GAPDH endogenous control, vs DMSO control, FIG. 3
Description: Mouse-muscle myoblast-cell lines C2C12 (cultured in DMEM FCS10%) were seeded in 24 well plates for determining the mRNA expression (1×10^4 cells/ml) and then were cultured for 24 hours. After 24 hours, the black-ginger extract (10 μg/mL) or the separated fractions (Compounds 1-8) were added to the culture media (DMEM FCS 1%) for differentiation induction until the concentration became 1 μM or 10 μM (i.e. until the concentration of the sample dissolved in each DMSO (dimethyl sulfoxide) became 0.1% (v/v) regarding the culture media). Then, the black-ginger extract and the separated fractions were cultured for one week. For control, the DMSO was added to the culture media in concentration of 0.1% (v/v). After being cultured for one week, the cells were collected, and the RNA was extracted. Regarding the collected RNA, by using RT-PCR (reverse-transcription polymerase-chain reaction), the expressed mRNA amount of the PGC-1α was identified. At that time, as an endogenous-control, GAPDH (Glyceraldehyde 3-phosphate dehydrogenase) was used.

Compound: COc1cc(O)c2c(=O)cc(-c3ccccc3)oc2c1 [Compound 2, Techtochrysin]
- mRNA expression of the sugar transporter (GLUT4) [1]: Significant expressed-promotion increases
- mRNA expression of the PGC-1α (PGC-1α): Significant increases; also recorded: stronger activity

Compound: COc1ccc(-c2oc3cc(OC)cc(O)c3c(=O)c2OC)cc1 [Compound 3, 3,7,4′-Trimethylkaempferol]
- mRNA expression of the sugar transporter (GLUT4) [1]: Significant expressed-promotion increases

Compound: COc1cc(O)c2c(=O)c(OC)c(-c3ccc(OC)c(OC)c3)oc2c1 [Compound 4, retusine]
- mRNA expression of the PGC-1α (PGC-1α): lower activity

Compound: COc1cc(OC)c2c(=O)cc(-c3ccccc3)oc2c1 [Compound 8, 5,7-dimethoxyflavone]
- mRNA expression of the sugar transporter (GLUT4) [1]: Significant expressed-promotion increases
- mRNA expression of the PGC-1α (PGC-1α): Significant increases; also recorded: stronger activity
